We go through 1 compound from patent US20190018003A1, “TUMOR DISCRIMINATION METHOD, DIAGNOSTIC AGENT FOR TUMOR, AND SENSITIZER FOR TUMOR DIAGNOSIS” (TOTO LTD., priority 2017, published 2019).

Test [1] has as its system WI-38 immortalized normal cells. The experiment in a line: Discrimination test, fluorescence in WI-38 immortalized normal cells after ALA and particles (separate plates). The format is cell-based, human. As to conditions: Example 10; WI-38 cell line; ALA 2 mmol/l, particles 0.001 w/v %. The method, then: Immortalized cell line WI-38 cells (WI-38 VA13 sub 2 RA, JCRB9057) of normal diploid fibroblast cell line WI-38 were prepared. This cell line was subcultured in an MEM medium (MEM, GlutaMAX™ supplement (Thermo Fisher Scientific), 10 v/v % FBS (Thermo Fischer Scientific)). The cultured cells which reached a logarithmic growth phase 3 days or 4 days later were peeled off with Trypsin/EDTA (Thermo Fisher Scientific) and, after the reaction was terminated in an MEM medium, centrifuged. The cell pellet obtained was suspended in an MEM medium. The cell suspension was subjected to measurement of cell density, inoculated onto a 6-well plate at a density of 5.0×10^4 cells/2 ml/well, and cultured for 3 days.
An aqueous ALA solution (50 mmol/l) was mixed into an MEM medium (MEM, GlutaMAX™ supplement (Thermo Fisher Scientific)) to form a 2 mmol/l ALA solution. Further, an aqueous solution of light scattering particles (2) (ii) was mixed into an MEM medium to form a 0.001 w/v % light scattering particle solution.
The media of the T24 cells and the WI-38 cells on 6-well plates, obtained in Example 3, were respectively removed by an aspirator, and detection was performed in the same manner as in Example 4, and relative fluorescence intensities were calculated.

The subject of test [2] is UM-UC-3 urinary bladder cancer cells. The test is described as follows: Fluorescence enhancement in UM-UC-3 cells detected by optical spectral detector (635 nm). The test is classed as cell-based, human. Conditions: Example 17, ALA 2 mmol/l, particles 0.001 w/v %, 405 nm excitation, 635 nm detection, immediately after light irradiation. The source says:
An aqueous ALA solution (50 mmol/l) was mixed into an E-MEM medium (ATCC-formulated Eagle's Minimum Essential Medium (ATCC)) to form a 2 mmol/l ALA solution. Further, aqueous solutions of light scattering particles (2) (ii) and 3 (ii) were mixed into an E-MEM medium to respectively form a light scattering particle solution having a concentration of 0.001 w/v %.
The medium of the UM-UC-3 cells on a 6-well plate, obtained in Example 3, was removed by an aspirator, and evaluation thereof was performed under the same conditions as in Example 5 and the solution was used for detection.
Detection was performed by using an optical spectral detector (USB 2000, a small sized fiber optical spectroscope, Ocean Optics) at room temperature in a dark place. […] Fluorescence generated therefrom was passed through a collimate lens disposed on the upper surface in a 50° direction, the collimate lens having a focal distance of 10.9 mm and a numerical aperture of 0.25 (F220SMA-A, Thorlabs) and, further, through an optical fiber (M59L01, Thorlabs) of φ=1 mm and a numerical aperture of 0.5, and was detected by the above optical spectral detector. […] And, by obtaining a difference in each measurement sample by subtracting the background intensity value from an intensity value of the measurement sample at a wavelength of 635 nm, the fluorescence detection intensity was calculated. […]

The structures appear in SMILES notation.

The compound `NCC(=O)CCC(=O)O` [fluorescent dye, 5-aminolevulinic acid] yielded a Relative fluorescence intensity in test [1] of 0.7. Moreover, the “Relative detected fluorescence intensity” value in test [2] is 1.0.
